Assay results: PubChem BioAssay (NCI)
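Test compounds were applied to cells in 96-well plates for 48 hours at 5 doses. TGI is the concentration that stops growth completely.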

Columns and labels:
Experiment in all cases: NCI-60 cell line screen, 48 h
[1] = tested on: A549 NSCLC
[2] = tested on: HL-60(TB) leukemia
[3] = tested on: HOP-62 NSCLC
[4] = tested on: HCT-15 colon
[5] = tested on: HCT-116 colon
[6] = tested on: KM20L2 colon
[7] = tested on: IGROV1 ovarian
[8] = tested on: EKVX NSCLC
[9] = tested on: CAKI-1 renal
[10] = tested on: SNB-78 CNS
[11] = tested on: LXFL 529 NSCLC
[12] = tested on: UACC-62 melanoma
[13] = tested on: MOLT-4 leukemia
[14] = tested on: NCI-H23 lung
[15] = tested on: DLD-1 colon
[16] = tested on: M19-MEL melanoma
[17] = tested on: LOX IMVI melanoma
[18] = tested on: COLO 205 colon
[19] = tested on: SF-295 CNS
[20] = tested on: OVCAR-4 ovarian
[21] = tested on: M14 melanoma
[22] = tested on: ACHN renal
[23] = tested on: A498 renal
[24] = tested on: U251 CNS
[25] = tested on: HCC-2998 colon
[26] = tested on: K-562 leukemia
[27] = tested on: SF-539 CNS
[28] = tested on: HOP-92 NSCLC
[29] = tested on: XF 498 CNS
[30] = tested on: SNB-19 CNS
[31] = tested on: HT29 colon
[32] = tested on: OVCAR-3 ovarian
[33] = tested on: SK-MEL-28 melanoma
[34] = tested on: NCI-H460 lung
[35] = tested on: DMS 114 small cell lung
[36] = tested on: SN12C renal
[37] = tested on: OVCAR-8 ovarian
[38] = tested on: RXF 393 renal
[39] = tested on: SK-OV-3 ovarian
[40] = tested on: SW-620 colon
[41] = tested on: SNB-75 CNS
[42] = tested on: 786-0 renal
[43] = tested on: UACC-257 melanoma
[44] = tested on: SK-MEL-5 melanoma
[45] = tested on: RPMI-8226 leukemia
[46] = tested on: CCRF-CEM leukemia
[47] = tested on: TK-10 renal
[48] = tested on: DMS 273 small cell lung
[49] = tested on: HOP-18 NSCLC
[50] = tested on: SK-MEL-2 melanoma
[51] = tested on: SF-268 CNS
[52] = tested on: KM12 colon
[53] = tested on: SR leukemia
[54] = tested on: UO-31 renal
[55] = tested on: MALME-3M melanoma
[56] = tested on: NCI-H522 lung
[57] = tested on: OVCAR-5 ovarian

Measured: TGI

O=C(O)CCC1CCc2cccc(OCC(=O)O)c2C1=O (stereo unspecified)
not listed: [50] | [51] | [52] | [53] | [54] | [55] | [56] | [57]
> 100 µM: all other assays above

CCCCCCCCCC/C=C/C=O
not listed: [3] | [9] | [20] | [42] | [45]
> 100 µM: all other assays above
